# From US7306789B2, “Method of stimulating hair growth using benzopyrans” (Warner-Lambert Company, LLC, priority 2002, dated 2007)
# Columns and labels:
# [1] = tested on: Female C3H/HeN mice; assay: Mouse hair growth model (topical administration); type: in vivo; details: for Day on which 50% incidence of hair growth occurred: topical
# Procedure: The effect of the benzopyran compound (3S,4R)-3,4-dihydro-4-(2,3-dihydro-2-methyl-3-oxopyridazin-6-yl)oxy-3-hydroxy-6-(3-hydroxyphenyl)sulphonyl-2,2,3-trimethyl-2H-benzo[b]pyran (Compound 1) on hair growth was evaluated by topical administration of the compound to mice. Compound 1 may be made according to the methods described in U.S. Pat. Nos. 5,912,244 and 6,071,938.
# Female C3H/HeN mice, 42-46 days old (Charles River Laboratories, Raleigh, N.C.) were used for the study. The hair follicles of mice at this age are in the second telogen phase, which usually lasts from 6 to 9 weeks, providing a wide enough window to test compounds for their ability to induce earlier onset of anagen. Only mice with pink skin, a visual indication of the telogen phase, were selected for inclusion in the study.
# Test compounds, including Compound 1, the potassium channel opener minoxidil (marketed as Rogaine® containing 2% minoxidil), and cyclosporin A, were dissolved in a vehicle consisting of propylene glycol (30%) and ethanol (70%). A test compound dissolved in vehicle, or a vehicle control (30/70 propylene glycol/ethanol, unless otherwise specified) was applied topically to the clipped dorsal region of the mice in each test group (7-10 mice) in a volume of 20 μl/cm^2. Treatments were applied once or twice daily, 5 days/week.
# The treatment area was observed and graded for signs of hair growth and local skin irritation. The hair growth response was quantified by recording, for each animal, the day on which signs of hair growth first appeared over the treated area. The first sign of anagen was the darkening of skin color as melanocytes in the follicles started to synthesize melanin in preparation for the production of pigmented hairs. The response time was measured as the number of days following initiation of treatment when hair growth was present in 50% of the mice in a given group.
# [2] = In vitro metabolism experiments (conjugation); type: in vitro ADME
# Source text: (§1) The compound is cleared by conjugation to produce the glucuronide and sulfate metabolites. The compound and its metabolites are rapidly taken up by the liver and excreted in the bile. Thus, following topical administration, any absorbed benzopyran is subject to high hepatic extraction, and thus low systemic exposure.
# [3] = In vivo clearance in dog; details: low exposure to unchanged drug following oral or systemic administration
# Source text: as §1
# [4] = In vivo clearance in rat; details: low exposure to unchanged drug following oral or systemic administration
# Source text: as §1
# [5] = In vivo clearance in human; details: low exposure to unchanged drug following oral or systemic administration
# Source text: as §1
structure (smiles),measurement,setting,value
"Cn1nc(O[C@@H]2c3cc(S(=O)(=O)c4cccc(O)c4)ccc3OC(C)(C)[C@@]2(C)O)ccc1=O [Compound 1, (3S,4R)-3,4-dihydro-4-(2,3-dihydro-2-methyl-3-oxopyridazin-6-yl)oxy-3-hydroxy-6-(3-hydroxyphenyl)sulphonyl-2,2,3-trimethyl-2H-benzo[b]pyran]",Quality of hair growth over the treated area,[1]; all cases of hair growth stimulation,full and thick hair growth
same,Hair growth stimulation,[1]; applied topically at 0.3% or 1% once or twice daily for five days or up to 4 weeks,stimulated hair growth
same,Efficacy relative to lower doses,[1]; concentrations greater than 1%,less efficacious than lower doses
same,Behaviour of drug on the skin,"[1]; concentrations greater than 1%, vehicle propylene glycol/ethanol",precipitation of drug on the skin
same,Hair growth,[1]; concentrations lower than 0.3% (0.1% to 0.03%),not observed
same,Local irritation or other adverse effects,[1]; mice treated for 2 weeks with 5%,No local irritation or other adverse effects
same,Day on which 50% incidence of hair growth occurred,"[1]; dose 0.03%, 1 dose/day, duration 1 week, study 5 (vehicle >35)",>35 days
same,Day on which 50% incidence of hair growth occurred,"[1]; dose 0.03%, 1 dose/day, duration 1 week, study 6 (vehicle >35)",>35 days
same,Day on which 50% incidence of hair growth occurred,"[1]; dose 0.03%, 1 dose/day, duration 1 week, study 7 (vehicle >35)",>35 days
same,Day on which 50% incidence of hair growth occurred,"[1]; dose 0.03%, 1 dose/day, duration 1 week, study 9 (vehicle >35)",>35 days
same,Day on which 50% incidence of hair growth occurred,"[1]; dose 0.1%, 1 dose/day, duration 1 week, study 5 (vehicle >35)",>35 days
same,Day on which 50% incidence of hair growth occurred,"[1]; dose 0.1%, 1 dose/day, duration 1 week, study 6 (vehicle >35)",>35 days
same,Day on which 50% incidence of hair growth occurred,"[1]; dose 0.3%, 1 dose/day, duration 1 week, study 4 (vehicle 25)",11 days
same,Day on which 50% incidence of hair growth occurred,"[1]; dose 0.3%, 1 dose/day, duration 1 week, study 5 (vehicle >35)",>35 days
same,Day on which 50% incidence of hair growth occurred,"[1]; dose 0.3%, 1 dose/day, duration 1 week, study 6 (vehicle >35)",>35 days
same,Day on which 50% incidence of hair growth occurred,"[1]; dose 0.3%, 1 dose/day, duration 1 week, study 7 (vehicle >35)",14 days
same,Day on which 50% incidence of hair growth occurred,"[1]; dose 0.3%, 1 dose/day, duration 1 week, study 9 (vehicle >35)",16 days
same,Day on which 50% incidence of hair growth occurred,"[1]; dose 0.3%, 1 dose/day, duration 1 week, study 10 (vehicle >35)",21 days
same,Day on which 50% incidence of hair growth occurred,"[1]; dose 0.3%, 1 dose/day, duration 1 week, study 11 (vehicle 56)",25 days
same,Day on which 50% incidence of hair growth occurred,"[1]; dose 0.3%, 1 dose/day, duration 1 week, study 12 (vehicle >35)",>35 days
same,Day on which 50% incidence of hair growth occurred,"[1]; dose 0.3%, 1 dose/day, duration 1 week, study 13 (vehicle 56)",28 days
same,Day on which 50% incidence of hair growth occurred,"[1]; dose 0.3%, 1 dose/day, duration 4 weeks, study 10 (vehicle >35)",23 days
same,Day on which 50% incidence of hair growth occurred,"[1]; dose 0.3%, 1 dose/day, duration 4 weeks, study 12 (vehicle >35)",16 days
same,Day on which 50% incidence of hair growth occurred,"[1]; dose 0.3%, 1 dose/day, duration 4 weeks, study 13 (vehicle 56)",35 days
same,Day on which 50% incidence of hair growth occurred,"[1]; dose 1%, 1 dose/day, duration 1 week, study 3 (vehicle 21)",14 days
same,Day on which 50% incidence of hair growth occurred,"[1]; dose 1%, 1 dose/day, duration 1 week, study 4 (vehicle 25)",11 days
same,Day on which 50% incidence of hair growth occurred,"[1]; dose 1%, 1 dose/day, duration 1 week, study 5 (vehicle >35)",>35 days
same,Day on which 50% incidence of hair growth occurred,"[1]; dose 1%, 1 dose/day, duration 1 week, study 8 (vehicle >35)",21 days
same,Day on which 50% incidence of hair growth occurred,"[1]; dose 1%, 1 dose/day, duration 1 week, study 9 (vehicle >35)",28 days
same,Day on which 50% incidence of hair growth occurred,"[1]; dose 1%, 1 dose/day, duration 1 week, study 10 (vehicle >35)",>35 days
same,Day on which 50% incidence of hair growth occurred,"[1]; dose 1%, 1 dose/day, duration 1 week, study 12 (vehicle >35)",16 days
same,Day on which 50% incidence of hair growth occurred,"[1]; dose 1%, 1 dose/day, duration 4 weeks, study 10 (vehicle >35)",>35 days
same,Day on which 50% incidence of hair growth occurred,"[1]; dose 1%, 1 dose/day, duration 4 weeks, study 12 (vehicle >35)",18 days
same,Day on which 50% incidence of hair growth occurred,"[1]; dose 1%, 2 doses/day, duration 2 weeks, study 1 (vehicle >35)",25 days
same,Day on which 50% incidence of hair growth occurred,"[1]; dose 1%, 2 doses/day, duration 2 weeks, study 2 (vehicle >35)",28 days
same,Rate of conjugation,[2],high
same,Clearance,[3],rapid clearance
same,Clearance,[4],rapid clearance
same,Clearance,[5],rapid clearance
"Nc1cc(N2CCCCC2)nc(N)[n+]1[O-] [Minoxidil, minoxidil, reference compound]",Day on which 50% incidence of hair growth occurred,"[1]; dose 2.5%, 1 dose/day, duration 1 week, study 13 (vehicle 56)",53 days
same,Day on which 50% incidence of hair growth occurred,"[1]; dose 2.5%, 1 dose/day, duration 4 weeks, study 13 (vehicle 58)",39 days
same,Day on which 50% incidence of hair growth occurred,"[1]; dose 5%, 1 dose/day, duration 1 week, study 13 (vehicle 56)",56 days
same,Day on which 50% incidence of hair growth occurred,"[1]; dose 5%, 1 dose/day, duration 4 weeks, study 13 (vehicle 58)",37 days
